Patent US20210017607A1, “Methods of Predicting Responsiveness to Cancer Therapies” (The University of Chicago, priority 2019, published 2021)
Entries after “also recorded” stand apart in the source; their conditions may differ.

Assays:
[1] = IC90 concentrations stated for in vitro/ex vivo drug treatments; conditions: FIG. 50, Myc-CAP-PTEN^−/− tumor suspensions; read-out: IC90 concentration
Myc-CAP-PTEN^−/− cells = experiment: Myc-CAP-PTEN−/− cells in vitro (western blotting, cytokine array); format: cell-based, mouse; conditions: 1 μM, 24 hours
Procedure: FIGS. 35A-35D. […] (35A) Myc-CAP-PTEN^−/− cells were treated with copanlisib […] (IC90 concentration) in vitro for 24 hours, and protein extracts were harvested for western blotting analysis with the indicated antibodies to analyze PI3K activation. (35B) Supernatants from (35A) were harvested for cytokine array profiling. n=3 independent in vitro experiments. (35C) Mice bearing Myc-CAP-PTEN^−/− established syngeneic tumors (200 mm^3) were treated with copanlisib (14 mg/kg, every other day, until tumors reached 2000 mm^3). Tumor volumes were monitored daily and graphed. (35D) At the end of treatment, tumors were analyzed by flow cytometry for tumor infiltrating immune cell subsets. n=5 mice per group.
FIGS. 49A and 49B. PTEN-deficient cancer cells have diminished STING expression that can be restored by […] and pan-PI3K inhibitors. (49A) Isogenic MC38, Myc-CAP, ID8, and TRAMP cells (−/+ PTEN) were analyzed for STING mRNA and protein expression by qRT-PCR and western blotting, respectively. (49B) Myc-CAP-PTEN^−/− cells were treated with GSK′771 (PI3Kβ-selective inhibitor, 1 μM) or BKM120 (pan-PI3K inhibitor, 1 μM) for 24 hours, and proteins were analyzed for STING expression and PI3K activation by western blotting.
Cancer Cell Lines and in vitro drug treatments. Transgenic c-myc^hi prostate tumor derived cell line, Myc-CAP and TRAMPC1, ovarian cancer cell line ID8 and murine colon adenocarcinoma line MC38 were obtained from the American Type Culture Collection (ATCC) and passaged in either 1×RPMI/1×DMEM (with phenol) or 1×DMEM (without phenol red) containing 10% fetal bovine serum, 1% penicillin-streptomycin, 2% L-glutamine and 1×ITS. ID8^pten−/−p53−/−cells were a kind gift from Dr. Ian McNeish (Imperial College, London). For generation of STING over expressing cell lines −Myc-CAP^pten+/+ and ID8^pten−/− cells were transfected with commercial available plasmid (DC-Mm22462-SH02, Genecoepia™), sorted and expanded as per protocol. […]

[2] = system: single cell suspensions derived from Myc-CAP (STING^lo) tumors; experiment: Ex vivo reconstitution assay, IFNβ ELISA; format: cell-based, mouse; conditions: ex vivo
Procedure: FIGS. 15A-15E. Differential STING pathway activation within B6-Myc (STING^hi) cell lines and BMDMs relative to Myc-CAP (STING^lo) cells. (15A, 15B) The indicated cancer cell lines and BMDMs were treated with DMXAA (mouse STING agonist) for 1 and 24 hours, respectively, and protein extracts were interrogated for cGAS/STING pathway activation with the indicated antibodies by Western blotting. Supernatants were collected from for IFNβ1 ELISA following 36 hours of treatment with DMXAA (15C, 15D). (15E) Syngeneic Myc-CAP (STING^lo) tumors were processed into single cell suspensions and used for phycoerythrin-based sorting of CD45+ cellular fractions. Equal numbers of cells from these fractions were stimulated with DMXAA. Supernatants were collected at 36 hrs for detection of IFNB1 by ELISA; n=3 independent experiments; Significance/p-values were calculated by one-way Anova (for 15C & 15E) or paired t-test (for 15D); TAM=tumor associated macrophage; s.e.=short exposure; l.e.=long exposure.
FIGS. 29A-29M. PARPi alone induces DNA DSBs, but not apoptosis even in combination with PI3Ki in Myc-CAP (STING^lo) cancer cells; PARPi/PI3Ki combination induces intracellular DNA DSBs and proportionate release of MV surface-associated DNA DSBs from B6-Myc (STINGhi) cancer cells without affecting cellular viability; PARPi/PI3K treatment activates tumor-cell extrinsic cGAS/STING pathway within TAMs in vivo via MV surface-associated DNA DSBs released from tumor cells. Myc-CAP cancer cells were treated with the indicated drugs singly or in combination for 36 hours. (29A) Cells were stained with anti-mouse specific p-γH2AX antibody and a fluorescently labeled secondary antibody for determination of DNA DSBs, which were quantified by confocal microscopy. (29B) Protein extracts from cells in 29A were analyzed for the indicated pharmacodynamic biomarkers by western blotting; (29C) Annexin V-PI staining was done to assess frequency of live cells (Annexin V^− PI^−) following drug treatment. (29D) Ultracentrifugation was utilized to purify microvesicles (MVs) from supernatants in treatment groups in (29A) and associated DNA DSBs was quantified by Nanodrop®. Independent experiments n=2. (29E) Ultracentrifugation was utilized to purify MVs from supernatants in indicated treatment groups in FIG. 17A, and associated DNA DSBs were quantified by Nanodrop®; n=2 independent experiments. (29F) Syngeneic mice were engrafted with Myc-CAP (STING^lo) cells, and tumors were harvested when the tumor volume reached 400 mm^3. Single cell suspensions of the tumors were treated with the indicated drug(s), in the presence or absence of GW4869 (MV biogenesis inhibitor). (29G) Bone marrow derived macrophage (BMDMs) were co-cultured for 30 hours with supernatants (−/+ exogenous 50 units of DNase I pre-treatment for 30 minutes) from Myc-CAP cells that were treated with the indicated drug(s) for 36 hours. (29H) cGAMP (10 μg/mL) was pre-incubated with 10 units of DNAse I or mock control for 30 minutes and then added to BMDMs for 30 hours. (29I-29L) STING^+/+/STING^−/− BMDMs were co-cultured for 36 hours with supernatants from Myc-CAP and B6-Myc cancer cells that were treated with the indicated drug(s) for 36 hours. Supernatants were collected from 29F-29L at the end of treatment and analyzed for IFNβ1 by ELISA. […] Tumor volume was recorded daily for duration of experiment. […] Significance/p-values were calculated by one-way ANOVA. […]

[3] = system: Myc-CAP (STING^lo) tumors; experiment: Myc-CAP syngeneic tumor growth; format: in vivo, mouse; conditions: for effect of concomitant agent on anti-tumor response elicited by degarelix/rucaparib/buparlisib (ADT/PARPi/PI3Ki): syngeneic mice
Procedure: FIGS. 25A and 25B. […] (25A-25B) Myc-CAP (STING^lo) tumor-bearing syngeneic mice were treated with the indicated drug(s) until untreated tumors reached approx. 2500 mm^3. Tumor volume curves for duration of treatment are shown.
FIGS. 26A-26D. […] Immunodeficient athymic nude (26A) and NOD-SCID (26B) mice were engrafted with Myc-CAP (STING^lo) tumors and treated with the indicated drug(s) until untreated tumors reached approx. 2000 mm^3. Tumor volume curves for duration of treatment are shown. For 26A-26B, n=3-4 mice per group. (26C-26D) Single-cell suspensions were generated from harvested tumors and analyzed by flow cytometry for the indicated immune cell populations and their activation states. Data are represented relative to CD45+ immune cells. For 26C-26D, n=3-5 animals per treatment group from 2 independent experiments. Significance/p-values were calculated by […].
FIGS. 29A-29M. […] Myc-CAP cancer cells were treated with the indicated drugs singly or in combination for 36 hours. (29A) Cells were stained with anti-mouse specific p-γH2AX antibody and a fluorescently labeled secondary antibody for determination of DNA DSBs, which were quantified by confocal microscopy. (29B) Protein extracts from cells in 29A were analyzed for the indicated pharmacodynamic biomarkers by western blotting; (29C) Annexin V-PI staining was done to assess frequency of live cells (Annexin V^− PI^−) following drug treatment. (29D) Ultracentrifugation was utilized to purify microvesicles (MVs) from supernatants in treatment groups in (29A) and associated DNA DSBs was quantified by Nanodrop®. Independent experiments n=2. (29E) Ultracentrifugation was utilized to purify MVs from supernatants in indicated treatment groups in FIG. 17A, and associated DNA DSBs were quantified by Nanodrop®; n=2 independent experiments. (29F) Syngeneic mice were engrafted with Myc-CAP (STING^lo) cells, and tumors were harvested when the tumor volume reached 400 mm^3. Single cell suspensions of the tumors were treated with the indicated drug(s), in the presence or absence of GW4869 (MV biogenesis inhibitor). (29G) Bone marrow derived macrophage (BMDMs) were co-cultured for 30 hours with supernatants (−/+ exogenous 50 units of DNase I pre-treatment for 30 minutes) from Myc-CAP cells that were treated with the indicated drug(s) for 36 hours. (29H) cGAMP (10 μg/mL) was pre-incubated with 10 units of DNAse I or mock control for 30 minutes and then added to BMDMs for 30 hours. (29I-29L) STING^+/+/STING^−/− BMDMs were co-cultured for 36 hours with supernatants from Myc-CAP and B6-Myc cancer cells that were treated with the indicated drug(s) for 36 hours. Supernatants were collected from 29F-29L at the end of treatment and analyzed for IFNβ1 by ELISA. (29M) Myc-CAP (STING^lo) tumor-bearing mice were treated with the indicated drug(s) until tumors first reached approx. 2500 mm^3. For the degerelix/rucaparib/buparlisib combination, additional cohorts of mice underwent concomitant treatment with STING antagonist H-151 or GW4869. Tumor volume was recorded daily for duration of experiment. For in vitro experiments, n=2 independent experiments and for in vivo experiments n=3-4 animals /group.

BMDMs = experiment: BMDM co-culture with supernatants from drug-treated cancer cells; format: cell-based, mouse; conditions: cGAMP 10 μg/mL, 30 hours
From the text: FIGS. 29A-29M. PARPi alone induces DNA DSBs, but not apoptosis even in combination with PI3Ki in Myc-CAP (STING^lo) cancer cells; PARPi/PI3Ki combination induces intracellular DNA DSBs and proportionate release of MV surface-associated DNA DSBs from B6-Myc (STINGhi) cancer cells without affecting cellular viability; PARPi/PI3K treatment activates tumor-cell extrinsic cGAS/STING pathway within TAMs in vivo via MV surface-associated DNA DSBs released from tumor cells. Myc-CAP cancer cells were treated with the indicated drugs singly or in combination for 36 hours. (29A) Cells were stained with anti-mouse specific p-γH2AX antibody and a fluorescently labeled secondary antibody for determination of DNA DSBs, which were quantified by confocal microscopy. (29B) Protein extracts from cells in 29A were analyzed for the indicated pharmacodynamic biomarkers by western blotting; (29C) Annexin V-PI staining was done to assess frequency of live cells (Annexin V^− PI^−) following drug treatment. (29D) Ultracentrifugation was utilized to purify microvesicles (MVs) from supernatants in treatment groups in (29A) and associated DNA DSBs was quantified by Nanodrop®. Independent experiments n=2. (29E) Ultracentrifugation was utilized to purify MVs from supernatants in indicated treatment groups in FIG. 17A, and associated DNA DSBs were quantified by Nanodrop®; n=2 independent experiments. […]

Q: With `Cc1c(Cn2c(C)nc3c(C(=O)O)cc(N4CCOCC4)cc32)cccc1C(F)(F)F` [GSK771] as the compound, how does the IC90 [1] read?
A: Its IC90 is 500 nM.

Q: And the “STING expression (western blotting)” value (Myc-CAP-PTEN^−/− cells)?
A: The value was “restored”.

Q: For `C[C@H](NC(=O)c1c(N)nn2cccnc12)c1cc2cccc(C#Cc3cnn(C)c3)c2c(=O)n1-c1ccccc1` [IPI549], which IC90 [1] is on record?
A: The IC90 was 500 nM.

Q: Which “effect of concomitant agent on IFNβ / Type I IFN production following rucaparib/buparlisib (PARPi/PI3Ki)” value [2] does the source give for `O=C(/C=C/c1ccc(/C=C/C(=O)Nc2ccc(C3=NCCN3)cc2)cc1)Nc1ccc(C2=NCCN2)cc1` [GW4869] here?
A: Its value is “abolished the IFNβ production; also recorded: Significant down-regulation of Type I IFN production”.

Q: And the “effect of concomitant agent on anti-tumor response elicited by degarelix/rucaparib/buparlisib (ADT/PARPi/PI3Ki)” value [3]?
A: The value was “abrogated the anti-tumor response; also recorded: significant abrogation”.

Q: Which results are given for `CCc1ccc(NC(=O)Nc2c[nH]c3ccccc23)cc1` [H-151]?
A: effect of concomitant agent on anti-tumor response elicited by PARPi/PI3Ki ([3]; c-myc driven murine PC models, immunocompetent mice): abrogated; effect of concomitant agent on anti-tumor response elicited by degarelix/rucaparib/buparlisib (ADT/PARPi/PI3Ki) [3]: abrogated the anti-tumor response

Q: For `Nc1nc2c(ncn2[C@@H]2O[C@@H]3COP(=O)(O)O[C@H]4[C@@H](O)[C@H](n5cnc6c(N)ncnc65)O[C@@H]4COP(=O)(O)O[C@@H]2[C@@H]3O)c(=O)[nH]1` [cGAMP, cyclic guanosine monophosphate-adenosine monophosphate], which “Type I IFN production within BMDMs after DNase I pre-treatment of the agent” value (BMDMs) is on record?
A: The value was “did not abrogate the Type I IFN production”.
